Measured values from patent US9802937B2, “Substituted pyrazolo{4,3-D}pyrimidines as kinase inhibitors” (ORIGENIS GMBH, priority 2011, dated 2017).

How the values were obtained:
[1] = target: T1, SYK kinase (Homo sapiens, UniProt P43405); test: SYK Assay (OMNIA KINASE ASSAY, SOX peptide fluorescence); assay type: biochemical; details: apparent Ki calculated from the IC50 using the Cheng-Prusoff equation; 1 mM ATP, 30° C.; read-out: SYK Activities: Ki
T1 construct: purchased Invitrogen, Carlsbad
In short: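 Apparent Ki values are derived by Cheng-Prusoff from IC50s of sigmoidal fits of reaction rate against compound concentration. Rates come from chelation-enhanced SOX fluorescence (λex 360/λem 485 nm, read every 30 s over 30 min) as the kinase phosphorylates 10 µM Omnia Tyr 7 peptide at 30 °C, with 1 mM ATP and 0.2 mM DTT.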

[2] = target: LRRK2 (Homo sapiens, UniProt Q5S007); test: LRRK2-LRRK2 G2019S-Assay (LanthaScreen Eu Kinase Binding Assay); details: 5 nM LRRK2 or their mutants, 10 nM tracer 236, RT 1 h; read-out: LRRK2 Activities: IC50
In short: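 Kinase (wild type or mutant, 5 nM) mixed with Eu-anti-GST antibody (2 nM), then 10 nM Alexa Fluor 647 tracer 236 added. After 1 h at room temperature, the acceptor/donor (665/615 nm) FRET ratio was measured. IC50 was fitted from concentration–ratio curves.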

Sequence of LRRK2 (Q5S007 970-2527 limits assumed): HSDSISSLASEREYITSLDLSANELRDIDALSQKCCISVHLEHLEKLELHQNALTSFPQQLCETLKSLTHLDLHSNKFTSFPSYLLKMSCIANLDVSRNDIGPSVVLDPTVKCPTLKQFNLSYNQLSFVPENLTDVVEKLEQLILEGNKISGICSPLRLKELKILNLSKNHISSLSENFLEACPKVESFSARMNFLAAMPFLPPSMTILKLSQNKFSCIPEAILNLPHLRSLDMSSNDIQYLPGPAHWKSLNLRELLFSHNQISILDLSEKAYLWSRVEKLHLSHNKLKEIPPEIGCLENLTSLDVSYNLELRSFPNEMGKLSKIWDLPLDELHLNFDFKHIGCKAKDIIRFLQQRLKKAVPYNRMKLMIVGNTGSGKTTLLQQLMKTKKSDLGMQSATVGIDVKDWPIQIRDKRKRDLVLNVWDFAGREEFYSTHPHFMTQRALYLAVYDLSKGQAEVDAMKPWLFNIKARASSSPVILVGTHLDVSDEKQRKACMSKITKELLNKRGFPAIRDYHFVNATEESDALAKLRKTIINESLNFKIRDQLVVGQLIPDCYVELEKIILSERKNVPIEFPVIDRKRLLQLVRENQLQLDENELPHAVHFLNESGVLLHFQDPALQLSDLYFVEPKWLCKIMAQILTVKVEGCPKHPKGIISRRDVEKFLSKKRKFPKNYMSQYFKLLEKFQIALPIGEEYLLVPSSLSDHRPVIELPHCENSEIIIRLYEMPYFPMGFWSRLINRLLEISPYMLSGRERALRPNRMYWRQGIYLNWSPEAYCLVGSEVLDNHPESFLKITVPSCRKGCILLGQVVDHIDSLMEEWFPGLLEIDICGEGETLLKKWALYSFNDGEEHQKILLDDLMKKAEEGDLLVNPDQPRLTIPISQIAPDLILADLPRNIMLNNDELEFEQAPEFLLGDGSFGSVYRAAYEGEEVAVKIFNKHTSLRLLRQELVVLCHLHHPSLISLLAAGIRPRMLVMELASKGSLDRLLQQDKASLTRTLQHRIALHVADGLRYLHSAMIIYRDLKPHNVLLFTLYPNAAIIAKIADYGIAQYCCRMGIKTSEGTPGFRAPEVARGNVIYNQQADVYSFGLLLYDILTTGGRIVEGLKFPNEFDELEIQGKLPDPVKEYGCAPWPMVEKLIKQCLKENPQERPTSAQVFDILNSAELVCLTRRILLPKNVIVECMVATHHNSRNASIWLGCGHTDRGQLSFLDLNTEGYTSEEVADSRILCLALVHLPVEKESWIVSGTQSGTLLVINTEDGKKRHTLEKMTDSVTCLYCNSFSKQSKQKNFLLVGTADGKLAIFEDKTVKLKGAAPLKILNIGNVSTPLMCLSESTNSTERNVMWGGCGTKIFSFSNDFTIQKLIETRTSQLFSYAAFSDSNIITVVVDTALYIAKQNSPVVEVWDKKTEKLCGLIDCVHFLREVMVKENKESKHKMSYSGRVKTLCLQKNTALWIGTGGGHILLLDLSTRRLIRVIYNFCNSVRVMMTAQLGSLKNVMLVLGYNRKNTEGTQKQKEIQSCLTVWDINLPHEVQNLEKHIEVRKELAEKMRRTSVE

Q: Which Ki [1] does the source give for `O=C1CCc2ccc(Nc3nc(-c4cccc(-c5nn[nH]n5)c4)nc4cn[nH]c34)cc2N1` [Example #196, 7-((5-(3-(2H-tetrazol-5-yl)phenyl)-1H-pyrazolo[4,3-d]pyrimidin-7-yl)amino)-3,4-dihydroquinolin-2(1H)-one] here?
A: < 0.01 µM

Q: What about the IC50 [2] of the same compound?
A: 0.1 to 1 µM

Q: For `CN1CCN(c2ccc(Nc3nc(-c4cscn4)nc4cn[nH]c34)cc2)CC1` [Example #197, N-(4-(4-methylpiperazin-1-yl)phenyl)-5-(thiazol-4-yl)-1H-pyrazolo[4,3-d]pyrimidin-7-amine], which Ki [1] is on record?
A: < 0.01 µM

Q: And the IC50 [2]?
A: 0.1 to 1 µM

Q: Which Ki [1] does the source give for `CC(=O)N1CCN(c2ccc(Nc3nc(-c4cscn4)nc4cn[nH]c34)cc2)CC1` [Example #198, 1-(4-(4-((5-(thiazol-4-yl)-1H-pyrazolo[4,3-d]pyrimidin-7-yl)amino)phenyl)piperazin-1-yl)ethan-1-one] here?
A: < 0.01 µM

Q: What about the IC50 [2] of the same compound?
A: 0.1 to 1 µM

Q: Which Ki [1] does the source give for `COc1ccc(Nc2nc(-c3cscn3)nc3cn[nH]c23)cc1OC` [Example #199, N-(3,4-dimethoxyphenyl)-5-(thiazol-4-yl)-1H-pyrazolo[4,3-d]pyrimidin-7-amine] here?
A: 0.01 to 0.1 µM

Q: And the IC50 [2]?
A: 0.01 to 0.1 µM

Q: Which results are given for `CN1CCN(c2ccc(Nc3nc(-c4cocn4)nc4cn[nH]c34)cc2)CC1` [Example #200, N-(4-(4-methylpiperazin-1-yl)phenyl)-5-(oxazol-4-yl)-1H-pyrazolo[4,3-d]pyrimidin-7-amine]?
A: Ki [1]: < 0.01 µM; IC50 [2]: 0.1 to 1 µM

Q: For `CC(=O)N1CCN(c2ccc(Nc3nc(-c4cocn4)nc4cn[nH]c34)cc2)CC1` [Example #201, 1-(4-(4-((5-(oxazol-4-yl)-1H-pyrazolo[4,3-d]pyrimidin-7-yl)amino)phenyl)piperazin-1-yl)ethan-1-one], which Ki [1] is on record?
A: < 0.01 µM

Q: What about the IC50 [2] of the same compound?
A: 0.1 to 1 µM

Q: For `COc1ccc(Nc2nc(-c3cocn3)nc3cn[nH]c23)cc1OC` [Example #202, N-(3,4-dimethoxyphenyl)-5-(oxazol-4-yl)-1H-pyrazolo[4,3-d]pyrimidin-7-amine], which Ki [1] is on record?
A: 0.01 to 0.1 µM

Q: What about the IC50 [2] of the same compound?
A: 0.1 to 1 µM

Q: For `CN1CCN(c2ccc(Nc3nc(-c4ncco4)nc4cn[nH]c34)cc2)CC1` [Example #203, N-(4-(4-methylpiperazin-1-yl)phenyl)-5-(oxazol-2-yl)-1H-pyrazolo[4,3-d]pyrimidin-7-amine], which Ki [1] is on record?
A: < 0.01 µM

Q: What about the IC50 [2] of the same compound?
A: 0.1 to 1 µM

Q: With `CC(=O)N1CCN(c2ccc(Nc3nc(-c4ncco4)nc4cn[nH]c34)cc2)CC1` [Example #204, 1-(4-(4-((5-(oxazol-2-yl)-1H-pyrazolo[4,3-d]pyrimidin-7-yl)amino)phenyl)piperazin-1-yl)ethan-1-one] as the compound, how does the Ki [1] read?
A: < 0.01 µM

Q: What about the IC50 [2] of the same compound?
A: 0.1 to 1 µM

Q: Which Ki [1] does the source give for `COc1ccc(Nc2nc(-c3ncco3)nc3cn[nH]c23)cc1OC` [Example #205, N-(3,4-dimethoxyphenyl)-5-(oxazol-2-yl)-1H-pyrazolo[4,3-d]pyrimidin-7-amine] here?
A: < 0.01 µM

Q: And the IC50 [2]?
A: 0.1 to 1 µM

Q: `O=C1CCc2ccc(Nc3nc(-c4cscn4)nc4cn[nH]c34)cc2N1` [Example #206, 7-((5-(thiazol-4-yl)-1H-pyrazolo[4,3-d]pyrimidin-7-yl)amino)-3,4-dihydroquinolin-2(1H)-one] was tested. Which Ki [1] did it give?
A: < 0.01 µM

Q: And the IC50 [2]?
A: 0.01 to 0.1 µM

Q: Which Ki [1] does the source give for `O=C1CCc2ccc(Nc3nc(-c4cocn4)nc4cn[nH]c34)cc2N1` [Example #207, 7-((5-(oxazol-4-yl)-1H-pyrazolo[4,3-d]pyrimidin-7-yl)amino)-3,4-dihydroquinolin-2(1H)-one] here?
A: < 0.01 µM

Q: What about the IC50 [2] of the same compound?
A: 0.1 to 1 µM

Q: `O=C1CCc2ccc(Nc3nc(-c4ncco4)nc4cn[nH]c34)cc2N1` [Example #208, 7-((5-(oxazol-2-yl)-1H-pyrazolo[4,3-d]pyrimidin-7-yl)amino)-3,4-dihydroquinolin-2(1H)-one] was tested. Which Ki [1] did it give?
A: < 0.01 µM

Q: And the IC50 [2]?
A: 0.1 to 1 µM

Q: What does the source list for `CN1CCC(c2ccc(Nc3nc(-c4cccs4)nc4cn[nH]c34)cc2)CC1` [Example #209, N-(4-(1-methylpiperidin-4-yl)phenyl)-5-(thiophen-2-yl)-1H-pyrazolo[4,3-d]pyrimidin-7-amine]?
A: Ki [1]: 0.01 to 0.1 µM; IC50 [2]: 0.1 to 1 µM

Q: Which Ki [1] does the source give for `O=C1CCCc2ccc(Nc3nc(-c4cccc(C(=O)O)c4)nc4cn[nH]c34)cc2N1` [Example #218, 3-(7-((2-oxo-2,3,4,5-tetrahydro-1H-benzo[b]azepin-8-yl)amino)-1H-pyrazolo[4,3-d]pyrimidin-5-yl)benzoic acid] here?
A: 0.01 to 0.1 µM

Q: And the IC50 [2]?
A: 0.1 to 1 µM

Q: With `COc1ccc(Nc2nc(-c3ccccc3F)nc3cn[nH]c23)cc1OC` [Example #232, N-(3,4-dimethoxyphenyl)-5-(2-fluorophenyl)-1H-pyrazolo[4,3-d]pyrimidin-7-amine] as the compound, how does the Ki [1] read?
A: < 0.01 µM

Q: And the IC50 [2]?
A: 0.1 to 1 µM

Q: With `Fc1ccccc1-c1nc(Nc2ccc(N3CCOCC3)cc2)c2[nH]ncc2n1` [Example #233, 5-(2-fluorophenyl)-N-(4-morpholinophenyl)-1H-pyrazolo[4,3-d]pyrimidin-7-amine] as the compound, how does the Ki [1] read?
A: < 0.01 µM

Q: What about the IC50 [2] of the same compound?
A: 0.1 to 1 µM

Q: Which results are given for `COc1ccc(Nc2nc(-c3cccc(F)c3)nc3cn[nH]c23)cc1OC` [Example #234, N-(3,4-dimethoxyphenyl)-5-(3-fluorophenyl)-1H-pyrazolo[4,3-d]pyrimidin-7-amine]?
A: Ki [1]: < 0.01 µM; IC50 [2]: 0.1 to 1 µM

Q: Which Ki [1] does the source give for `Fc1cccc(-c2nc(Nc3ccc(N4CCOCC4)cc3)c3[nH]ncc3n2)c1` [Example #235, 5-(3-fluorophenyl)-N-(4-morpholinophenyl)-1H-pyrazolo[4,3-d]pyrimidin-7-amine] here?
A: < 0.01 µM

Q: And the IC50 [2]?
A: 0.01 to 0.1 µM

Q: `CC(=O)N1CCN(c2ccc(Nc3nc(-c4cccc(S(N)(=O)=O)c4)nc4cn[nH]c34)cc2)CC1` [Example #237, 3-(7-((4-(4-acetylpiperazin-1-yl)phenyl)amino)-1H-pyrazolo[4,3-d]pyrimidin-5-yl)benzenesulfonamide] was tested. Which Ki [1] did it give?
A: < 0.01 µM

Q: What about the IC50 [2] of the same compound?
A: 0.1 to 1 µM

Q: `NS(=O)(=O)c1cccc(-c2nc(Nc3ccc(N4CCOCC4)cc3)c3[nH]ncc3n2)c1` [Example #239, 3-(7-((4-morpholinophenyl)amino)-1H-pyrazolo[4,3-d]pyrimidin-5-yl)benzenesulfonamide] was tested. Which Ki [1] did it give?
A: < 0.01 µM

Q: And the IC50 [2]?
A: 0.1 to 1 µM

Q: With `CS(=O)(=O)c1cccc(-c2nc(Nc3ccc(N4CCOCC4)cc3)c3[nH]ncc3n2)c1` [Example #251, 5-(3-(methylsulfonyl)phenyl)-N-(4-morpholinophenyl)-1H-pyrazolo[4,3-d]pyrimidin-7-amine] as the compound, how does the Ki [1] read?
A: < 0.01 µM

Q: What about the IC50 [2] of the same compound?
A: 0.1 to 1 µM

Q: How did the Ki [1] turn out when `O=C1CCc2ccc(Nc3nc(-c4cnc5cc[nH]c5c4)nc4cn[nH]c34)cc2N1` [Example #257, 7-((5-(1H-pyrrolo[3,2-b]pyridin-6-yl)-1H-pyrazolo[4,3-d]pyrimidin-7-yl)amino)-3,4-dihydroquinolin-2(1H)-one] was run?
A: < 0.01 µM

Q: And the IC50 [2]?
A: 0.1 to 1 µM

Q: What does the source list for `CNS(=O)(=O)c1cccc(Nc2nc(-c3cccs3)nc3cn[nH]c23)c1` [Example #265, N-methyl-3-((5-(thiophen-2-yl)-1H-pyrazolo[4,3-d]pyrimidin-7-yl)amino)benzenesulfonamide]?
A: Ki [1]: 0.1 to 1 µM; IC50 [2]: 0.1 to 1 µM

Q: `O=C1CCc2ccc(Nc3nc(-c4ccc5cn[nH]c5c4)nc4cn[nH]c34)cc2N1` [Example #269, 7-((5-(1H-indazol-6-yl)-1H-pyrazolo[4,3-d]pyrimidin-7-yl)amino)-3,4-dihydroquinolin-2(1H)-one] was tested. Which Ki [1] did it give?
A: < 0.01 µM

Q: And the IC50 [2]?
A: < 0.01 µM

Q: Which Ki [1] does the source give for `Fc1ccc(-c2nc(Nc3ccc(N4CCOCC4)cc3)c3[nH]ncc3n2)cc1` [Example #271, 5-(4-fluorophenyl)-N-(4-morpholinophenyl)-1H-pyrazolo[4,3-d]pyrimidin-7-amine] here?
A: 0.01 to 0.1 µM

Q: And the IC50 [2]?
A: 0.1 to 1 µM

Q: Which Ki [1] does the source give for `CN1CCN(C2CCN(c3ccc(Nc4nc(-c5ccccc5F)nc5cn[nH]c45)cc3)CC2)CC1` [Example #278, 5-(2-fluorophenyl)-N-(4-(4-(4-methylpiperazin-1-yl)piperidin-1-yl)phenyl)-1H-pyrazolo[4,3-d]pyrimidin-7-amine] here?
A: < 0.01 µM

Q: And the IC50 [2]?
A: 0.1 to 1 µM

Q: Which results are given for `COc1ccc(Nc2nc(-c3c(F)cccc3F)nc3cn[nH]c23)cc1OC` [Example #281, 5-(2,6-difluorophenyl)-N-(3,4-dimethoxyphenyl)-1H-pyrazolo[4,3-d]pyrimidin-7-amine]?
A: Ki [1]: < 0.01 µM; IC50 [2]: 0.1 to 1 µM

Q: How did the Ki [1] turn out when `Fc1cccc(F)c1-c1nc(Nc2ccc(N3CCOCC3)cc2)c2[nH]ncc2n1` [Example #282, 5-(2,6-difluorophenyl)-N-(4-morpholinophenyl)-1H-pyrazolo[4,3-d]pyrimidin-7-amine] was run?
A: 0.01 to 0.1 µM

Q: And the IC50 [2]?
A: 0.1 to 1 µM

Q: For `Fc1cccc(F)c1-c1nc(Nc2ccc(N3CCN(C4CC4)CC3)cc2)c2[nH]ncc2n1` [Example #283, N-(4-(4-cyclopropylpiperazin-1-yl)phenyl)-5-(2,6-difluorophenyl)-1H-pyrazolo[4,3-d]pyrimidin-7-amine], which Ki [1] is on record?
A: 0.01 to 0.1 µM

Q: What about the IC50 [2] of the same compound?
A: 0.1 to 1 µM

Q: Which Ki [1] does the source give for `Fc1cc(Nc2nc(-c3cccs3)nc3cn[nH]c23)ccc1N1CCOCC1` [Example #296, N-(3-fluoro-4-morpholinophenyl)-5-(thiophen-2-yl)-1H-pyrazolo[4,3-d]pyrimidin-7-amine] here?
A: < 0.01 µM

Q: And the IC50 [2]?
A: 0.1 to 1 µM

Q: What does the source list for `CN1CCN(C2CCN(C(=O)c3ccc(Nc4nc(-c5cccs5)nc5cn[nH]c45)cc3)CC2)CC1` [Example #297, (4-(4-methylpiperazin-1-yl)piperidin-1-yl)(4-((5-(thiophen-2-yl)-1H-pyrazolo[4,3-d]pyrimidin-7-yl)amino)phenyl)methanone]?
A: Ki [1]: < 0.01 µM; IC50 [2]: 0.01 to 0.1 µM

Q: How did the Ki [1] turn out when `COc1ccc(Nc2nc(-c3ccc4c(c3)NCCO4)nc3cn[nH]c23)cc1OC` [Example #300, 5-(3,4-dihydro-2H-benzo[b][1,4]oxazin-6-yl)-N-(3,4-dimethoxyphenyl)-1H-pyrazolo[4,3-d]pyrimidin-7-amine] was run?
A: < 0.01 µM

Q: What about the IC50 [2] of the same compound?
A: 0.1 to 1 µM
